According to patent publication US20050148616A1, “Inhibitor of TNF-alpha and IL-1beta production” (priority 2003, published 2005):
Structures can show the parent of a compound that is named as a salt.

How the values were obtained:
[1] = system: IL-1β; experiment: LPS-induced IL-1β production in human normal PBMCs (ELISA); format: cell-based
Experimental: (§1) PBMCs were isolated from fresh blood using a Ficoll-Paque Plus reagent (Amersham Bioscience) according to the protocol recommended by the manufacturer. The cells were suspended in a RPMI 1640 medium containing 10% FBS at a concentration of 1×10^5 cells/ml and seeded in a 96-well plate (1×10^4 cells total in each well). Each reaction was carried out in three wells.
(§2) 10 μl of pseudolycorine hydrochloride in DMSO was added to wells to obtain the final concentrations at 0.1, 0.3, 1, 3, 10, 30, and 100 μg/ml. In a positive control, dexamethason (DEX), an anti-inflammatory agent, instead of pseudolycorine hydrochloride, was added (final concentration 10 μM). In a negative control, 10 μl of the medium, instead of pseudolycorine hydrochloride, was added. The plate was placed in a 5% CO2 incubator at 37° C. for 15 minutes. After 10 μl aliquots of 100 μg/ml of LPS were added to all wells except for the negative control, the plate was placed in a 5% CO2 incubator at 37° C. overnight.
(§3) The plate was spun at 1000 rpm for 15 minutes and the supernatants were collected. The concentrations of TNF-α and IL-1β were measured by the TNF-α ELISA (Enzyme Linked Immunosorbent Assay) Kit and IL-1β ELISA Kit (Jingmei Bioengineer Technology). The inhibition ratios of TNF-α and IL-1β were calculated as follows: TNF-α Inhibition Ratio (%)=[TNF-α]control−[TNF-α]PHCl/[TNF-α]control×100% IL-1β Inhibition Ratio (%)=[IL-1β]control−[IL-1β]PHCl/[IL-1β]control×100% where [TNF-α]PHCl is the concentration of TNF-α in PBMCs treated with pseudolycorine hydrochloride and LPS, [TNF-α]control is the concentration of TNF-α in PBMCs treated with LPS and the medium, [IL-1β]PHCl is the concentration of IL-1β in PBMCs treated with pseudolycorine hydrochloride and LPS, and [IL-1β]control is the concentration of IL-1β in PBMCs treated with LPS and the medium.

[2] = system: TNF-α; experiment: LPS-induced TNF-α production in human normal PBMCs (ELISA); format: cell-based
Experimental: as §1, §2, §3

[3] = compared with dexamethason (DEX) at 10 μM, LPS-stimulated human PBMCs

For `COc1cc2c(cc1O)[C@@H]1[C@H](O)[C@@H](O)C=C3CCN(C2)[C@H]31` [pseudolycorine hydrochloride], the “inhibition of expression of IL-1β, concentration dependence” value ([1]; 0.1-100 μg/ml, FIG. 4) was “concentration-dependent manner”, the “concentration at which expression of IL-1β was inhibited” value ([1]; LPS-stimulated human PBMCs, overnight, ELISA of supernatant, FIG. 2) was no less than 1 µg/mL and the “concentration at which expression of IL-1β was inhibited more effectively than DEX” value [1, 3] was no less than 10 µg/mL. For the same compound, the “inhibition of expression of TNF-α, concentration dependence” value ([2]; 0.1-100 μg/ml, FIG. 3) was “concentration-dependent manner”, the “concentration at which expression of TNF-α was inhibited” value ([2]; LPS-stimulated human PBMCs, overnight, ELISA of supernatant, FIG. 1) was no less than 0.3 µg/mL and the “concentration at which expression of TNF-α was inhibited more effectively than DEX” value [2, 3] was no less than 3 µg/mL.
